Converted amounts (≈) assume the structure as drawn.
How the values were obtained:
Format in all cases: cell-based
Cryptococcus neoformans = assay: In vitro MIC, NCCLS M27A, Cryptococcus neoformans; design: MIC, C. neoformans I: unit not given beside the values; MIC, C. neoformans M 106: unit not given here; conditions: for MIC, C. neoformans I: C. neoformans strain I; for MIC, C. neoformans M 106: C. neoformans strain M 106
Histoplasma capsulatum = system: Histoplasma capsulatum
Candida = assay: In vitro MIC, NCCLS M27A, Candida species; design: MIC, Candida albicans 1.549 / MIC, Candida albicans Y-01-19 / MIC, C. krusei 766-1 / MIC, C. krusei Q. C / MIC, Candida tropicalis ATCC / MIC, C. glabrata 90030: unit not given beside the values; MIC, Candida albicans A 26 / MIC, C. parapsilosis Q. C.: unit not given here; conditions: for MIC, C. glabrata 90030: C. glabrata strain 90030; for MIC, C. krusei 766-1: C. krusei strain 766-1; for MIC, C. krusei Q. C: C. krusei strain Q. C; for MIC, C. parapsilosis Q. C.: C. parapsilosis strain Q. C.; for MIC, Candida albicans 1.549: Candida albicans strain 1.549; for MIC, Candida albicans A 26: Candida albicans strain A 26; for MIC, Candida albicans Y-01-19: Candida albicans strain Y-01-19
A. fumigatus s 1008 = assay: In vitro MIC, NCCLS M38P broth method (RPMI 1640/MOPS pH7), Aspergillus fumigatus; conditions: A. fumigatus strain 1008

Row | Structure (SMILES) | MIC, C. neoformans I (Cryptococcus neoformans) | MIC, C. neoformans M 106 (Cryptococcus neoformans) | MIC, H. capsulatum (Histoplasma capsulatum) [µg/mL] | MIC, C. glabrata 90030 (Candida) | MIC, C. krusei 766-1 (Candida) | MIC, C. krusei Q. C (Candida) | MIC, C. parapsilosis Q. C. (Candida) | MIC, Candida albicans 1.549 (Candida) | MIC, Candida albicans A 26 (Candida) | MIC, Candida albicans Y-01-19 (Candida) | MIC, Candida tropicalis ATCC (Candida) | MIC, A. fumigatus 1008 (A. fumigatus s 1008)
1 | Cc1ccc(N2CCN(c3ccc(-n4cnn([C@H](C)[C@@](O)(Cn5cncn5)c5ccc(F)cc5F)c4=O)cc3)CC2)c(C)c1 [Compound 20, 2-{[1R2S/1S2R]-2-(2,4-Difluorophenyl)-2-hydroxy-1-methyl-3-(1H-1,2,4-triazol-1-yl)propyl}-4-{4-[4-(2,4-dimethylphenyl)-1-piperazinyl]phenyl}-3-(2H,4H)-1,2,4-triazolone] | 0.25 | 0.25 | 0.5 (≈ 0.832 µM) | 2.00 | >16 | 2.00 | 0.12 | 8.00 | <0.03 | 2.00 | <0.03 | >16
2 | C[C@@H](n1ncn(-c2ccc(N3CCN(c4ccccc4)CC3)cc2)c1=O)[C@@](O)(Cn1cncn1)c1ccc(F)cc1F [Compound 6, 2-{[1R2S/1S2R]-2-(2,4-Difluorophenyl)-2-hydroxy-1-methyl-3-(1H-1,2,4-triazol-1-yl)propyl}-4-[4-(1-phenylpiperazinyl)phenyl]-3-(2H,4H)-1,2,4-triazolone] | 0.25 | 2.00 | 0.12 (≈ 0.21 µM) | >16 | >16 | 16.0 | 0.125 | 2.00 | <0.03 | 8.00 | <0.03 | >16
3 | C[C@@H](n1ncn(-c2ccc(N3CCN(c4ccc(F)c(Cl)c4)CC3)cc2)c1=O)[C@](O)(Cn1cncn1)c1ccc(F)cc1F [Compound 15, 2-{[1R2R/1S2S]-2-(2,4-Difluorophenyl)-2-hydroxy-1-methyl-3-(1H-1,2,4-triazol-1-yl)propyl}-4-{4-[4-(3-chloro-4-fluorophenyl)-1-piperazinyl]phenyl}-3-(2H,4H)-1,2,4-triazolone] | <0.03 | <0.03 | 0.12 (≈ 0.192 µM) | 0.50 | 0.50 | 0.25 | <0.03 | 1.00 | <0.03 | 0.25 | <0.03 | 0.50
4 | Cc1nn(CC(O)(Cn2cncn2)c2ccc(F)cc2F)c(=O)n1-c1ccc(N2CCN(c3ccc(Cl)cc3)CC2)cc1 (stereo not drawn) [Compound 46, 2-[2-(2,4-Difluorophenyl)-2-hydroxy-3-(1H-1,2,4-triazol-1-yl)propyl]-4-{4-[4-(4-chlorophenyl)-1-piperazinyl]phenyl}-3-(2H,4H)-5-methyl-1,2,4-triazolone] | 0.05 | 0.40 | 0.1 (≈ 0.165 µM) | 6.25 | 3.12 | 0.80 | <0.02 | 0.40 | <0.02 | 0.40 | 0.05 | >12.5
5 | C[C@@H](n1ncn(-c2ccc(N3CCN(c4ccc([N+](=O)[O-])cc4[N+](=O)[O-])CC3)cc2)c1=O)[C@@](O)(Cn1cncn1)c1ccc(F)cc1F [Compound 4, 2-{[1R2S/1S2R]-2-(2,4-Difluorophenyl)-2-hydroxy-1-methyl-3-(1H-1,2,4-triazol-1-yl)propyl}-4-{4-[4-(2,4-dinitrophenyl)-1-piperazinyl]phenyl}-3-(2H,4H)-1,2,4-triazolone] | 0.25 | 1.00 | 0.5 (≈ 0.755 µM) | 2.00 | >16 | >16 | 0.25 | 4.00 | <0.03 | >16 | <0.03 | >16
6 | C[C@@H](n1ncn(-c2ccc(N3CCN(c4ccc(Cl)cc4)CC3)cc2)c1=O)[C@](O)(Cn1cncn1)c1ccc(F)cc1F [Compound 1, 2-{[1R2R/1S2S]-2-(2,4-Difluorophenyl)-2-hydroxy-1-methyl-3-(1H-1,2,4-triazol-1-yl)propyl}-4-{4-[4-(4-chlorophenyl)-1-piperazinyl]phenyl}-3-(2H,4H)-1,2,4-triazolone] | <0.03 | <0.03 | 0.06 (≈ 0.0988 µM) | 0.25 | 0.25 | 0.12 | <0.03 | 0.12 | <0.03 | 0.12 | <0.03 | 0.12
7 | C[C@@H](n1ncn(-c2ccc(N3CCN(c4ccc(Cl)c(Cl)c4)CC3)cc2)c1=O)[C@](O)(Cn1cncn1)c1ccc(F)cc1F [Compound 7, 2-{[1R2R/1S2S]-2-(2,4-Difluorophenyl)-2-hydroxy-1-methyl-3-(1H-1,2,4-triazol-1-yl)propyl}-4-{4-[4-(3,4-dichlorophenyl)-1-piperzinyl]phenyl}-3-(2H,4H)-1,2,4-triazolone] | <0.03 | <0.03 | 0.12 (≈ 0.187 µM) | 0.12 | 0.25 | 0.12 | <0.03 | 0.25 | <0.03 | 0.12 | <0.03 | 0.25
8 | C[C@@H](n1ncn(-c2ccc(N3CCN(c4ccc(Cl)c(Cl)c4)CC3)cc2)c1=O)[C@@](O)(Cn1cncn1)c1ccc(F)cc1F [Compound 8, 2-{[1R2S/1S2R]-2-(2,4-Difluorophenyl)-2-hydroxy-1-methyl-3-(1H-1,2,4-triazol-1-yl)propyl}-4-{4-[4-(3,4-dichlorophenyl)-1-piperazinyl]phenyl}-3-(2H,4H)-1,2,4-triazolone] | 16.00 | 16.00 | 2 (≈ 3.12 µM) | >16 | >16 | >16 | 1.00 | >16 | <0.03 | >16 | >16 | >16
9 | COc1ccc(N2CCN(c3ccc(-n4cnn([C@H](C)[C@@](O)(Cn5cncn5)c5ccc(F)cc5F)c4=O)cc3)CC2)cc1 [Compound 14, 2-{[1R2S/1S2R]-2-(2,4-Difluorophenyl)-2-hydroxy-1-methyl-3-(1H-1,2,4-triazol-1-yl)propyl}-4-{4-[4-(4-methoxyphenyl)-1-piperazinyl]phenyl}-3-(2H,4H)-1,2,4-triazolone] | 0.50 | <0.03 | 0.12 (≈ 0.199 µM) | 2.00 | >16 | 16.0 | 0.06 | 2.00 | <0.03 | 2.00 | <0.03 | >16
10 | CCc1ccccc1N1CCN(c2ccc(-n3c(C)nn([C@H](C)[C@](O)(Cn4cncn4)c4ccc(F)cc4F)c3=O)cc2)CC1 [Compound 31, 2-{[1R2R/1S2S]-2-(2,4-Difluorophenyl)-2-hydroxy-1-methyl-3-(1H-1,2,4-triazol-1-yl)propyl}-4-{4-[4-(2-ethylphenyl)-1-piperazinyl]phenyl}-3-(2H,4H)-5-methyl-1,2,4-triazolone] | <0.03 | <0.03 | 0.06 (≈ 0.0976 µM) | 0.50 | 0.50 | 0.12 | <0.03 | >16 | <0.03 | 0.12 | <0.03 | 1.00
11 | C[C@@H](n1ncn(-c2ccc(N3CCN(c4cccc(C(F)(F)F)c4)CC3)cc2)c1=O)[C@](O)(Cn1cncn1)c1ccc(F)cc1F [Compound 9, 2-{[1R2R/1S2S]-2-(2,4-Difluorophenyl)-2-hydroxy-1-methyl-3-(1H-1,2,4-triazol-1-yl)propyl}-4-{4-[4-(3-trifluoromethylphenyl)-1-piperazinyl]phenyl}-3-(2H,4H)-1,2,4-triazolone] | <0.03 | <0.03 | 0.06 (≈ 0.0937 µM) | 0.25 | 0.50 | 0.12 | <0.03 | 0.25 | <0.03 | 0.25 | <0.03 | 0.50
